Test results as given in the NIST ThermoML archive (doi:10.1021/je030101n).

Test: xn = mol fraction of the nth substance listed
Details: 101.3 kPa, Liquid; for viscosity: Capillary tube (Ostwald / Ubbelohde) method; for mass density: Pycnometric method

Nc1ccccc1 [aniline] + CN(C)C=O
Details	mass density, 298.15 K [kg/m3]	mass density, 303.15 K [kg/m3]	mass density, 308.15 K [kg/m3]	mass density, 313.15 K [kg/m3]	viscosity, 298.15 K [mPa·s]	viscosity, 303.15 K [mPa·s]	viscosity, 308.15 K [mPa·s]	viscosity, 313.15 K [mPa·s]
x2 = 0	1017.2	1012.9	1008.6	1004.2	3.69	3.19	2.8	2.42
x2 = 0.1293	1010.3	1006	1001.7	997.3	3.296	2.864	2.521	2.186
x2 = 0.2582	1005.8	1001.5	997.2	992.9	2.908	2.54	2.242	1.952
x2 = 0.3548	1000.5	996.2	991.9	987.6	2.621	2.298	2.034	1.779
x2 = 0.4642	993.9	989.5	985.1	980.7	2.3	2.025	1.8	1.583
x2 = 0.5537	987.6	983.2	978.9	974.5	2.04	1.803	1.611	1.423
x2 = 0.6614	978.8	974.3	969.8	965.3	1.731	1.543	1.387	1.237
x2 = 0.7558	969.2	964.8	960.4	955.9	1.466	1.319	1.194	1.079
x2 = 0.8302	961.4	957	952.6	948.1	1.257	1.145	1.044	0.954
x2 = 0.9123	952.3	947.7	943.1	938.4	1.038	0.955	0.88	0.819
